Assays:
Format in all cases: physicochemical, human
[1] = GC/MS of serum sample: number of times of freezing and thawing (Table I); design: key to Rate of increase or decrease / Rate of increase or decrease (first value, increase): detection intensity relative to 2 freeze-thaw cycles = 1; conditions: for Rate of increase or decrease: detection intensity relative to 1 at 2 times; for Number of times when compound is affected: detection intensity changed by 30% or more vs 2 times of freezing and thawing
Experimental: (§1) After standing, the blood sample was subjected to centrifugation under a condition of room temperature, 3500 rpm, and 5 minutes. […] After centrifugation, the blood-collecting vessel was left to stand at room temperature, and the serum was isolated during this time. Here, in order to investigate how the detection intensity of molecules contained in the sample was affected in cases where the time during which the blood-collecting vessel was left at room temperature was set to 1 hour and 6 hours as compared to that in a case where the time was set to 30 minutes, preparations were performed under the respective conditions of 30 minutes, 1 hour, and 6 hours. The obtained serum sample was frozen and stored. Here, in order to investigate how the detection intensity of molecules contained in the sample was affected in cases where freezing and thawing was performed 4 times, 6 times, and 10 times after freezing as compared to that in a case where freezing and thawing was performed 2 times after freezing, freezing and thawing was performed under the respective conditions of 2, 4, 6, and 10 times.
(§2) Frozen blood plasma samples and serum samples were subjected to GC/MS or LC/MS. In GC/MS, the blood plasma samples and serum samples were subjected to methoxymation and trimethylsilylation and then introduced to GC-MS.
(§3) GC/MS was conducted using GCMS·TQ8040 (Shimadzu Corporation) that was a GC·MS equipped with AOC·20i (Shimadzu Corporation) as an autosampler.
(§4) Column: BPX5 (inner diameter of 0.25 mm, length of 30 m, and film thickness of 0.25 μm) (SGE)
(§5) Column temperature: maintained at 60° C. for 2 minutes, then raised at 15° C./min, and maintained at 330° C. for 3 minutes.
(§6) Inlet temperature: 250° C.
(§7) Carrier gas control mode: constant linear velocity of 39.0 cm/sec
(§8) Sample introduction method: split (split ratio of 30:1) Injection volume: 1 μL
(§9) Ionization method: electron ionization
(§10) Ionization current: 60 μA
(§11) Interface temperature: 280° C.
(§12) Ion source temperature: 200° C.
(§13) Mode: multiple reaction monitoring (MRM)
The rate of increase or decrease in Table I is the value of detection intensity relative to 1 that is the detection intensity in a case where the number of times of freezing and thawing is set to 2 times.

[2] = LC/MS of blood plasma sample: time from blood collection to centrifugation (Table D); conditions: for Increase or decrease: detection intensity, blood collection to centrifugation, after 12 hours vs 15 minutes; for Rate of increase or decrease (second value, decrease) / Rate of increase or decrease (first value, increase): different from individual to individual, relative to 1 at 15 minutes, collection to centrifugation, after 12 hours; for Rate of increase or decrease (second value, decrease): individuals with decrease; for Rate of increase or decrease (first value, increase): individuals with increase
Experimental: (§14) At room temperature, 5 mL of blood from a healthy subject was taken into a blood-collecting vessel containing EDTA, and the blood-collecting vessel was inverted for mixing, then cooled, and allowed to stand at 4° C. Here, in order to investigate how the detection intensity of molecules contained in the sample was affected in a case where the time to cooling was set to 5 minutes or more as compared to that in a case where the time to cooling was set to 1 minute or less, preparations were performed under both the former condition and the latter condition. After standing, the blood sample was subjected to centrifugation under a condition of 4° C., 3000 rpm, and 15 minutes. […] After centrifugation, the blood-collecting vessel was left to stand at room temperature for 30 minutes, and the blood plasma was isolated during this 30 minutes. The obtained blood plasma sample was frozen and stored. Here, in order to investigate how the detection intensity of molecules contained in the sample was affected in cases where freezing and thawing was performed 4 times, 6 times, and 10 times after freezing as compared to that in a case where freezing and thawing was performed 2 times after freezing, freezing and thawing was performed under the respective conditions of 2, 4, 6, and 10 times.
as §2
(§15) Analysis column: Discovery HS F5-3 (inner diameter of 2.1 mm, length of 150 mm, film thickness of 3 μm) (Sigma-Aldrich)
(§16) Column temperature: 40° C.
(§17) (A) 0.1% formic acid (dissolved in water)
(§18) (B) 0.1% formic acid (dissolved in acetonitrile)
(§19) Flow velocity: 0.25 mL/min
(§20) Ionization method: electrospray
(§21) Temperature: • Desolvation Line (DL) temperature: 250° C. • Heat block temperature: 400° C. • Interface temperature: 300° C.
(§22) Gas flow rate: • Nebulizer gas flow rate: 3.0 L/min • Drying gas flow rate: 10.0 L/min • Heating gas flow rate: 10.0 L/min
as §13
The rate of increase or decrease in Table D is the value of detection intensity relative to 1 that is the detection intensity in a case where the time from blood collection to centrifugation is set to 15 minutes.

[3] = LC/MS of serum sample: number of times of freezing and thawing (Table M); design: key to Rate of increase or decrease: detection intensity relative to 1 at 2 freeze-thaw cycles; conditions: for Rate of increase or decrease: 6 times of freezing and thawing; for Number of times when compound is affected / Increase or decrease: serum sample, LC/MS; for Number of times when compound is affected: detection intensity changed by 30% or more vs 2 times of freezing and thawing; for Increase or decrease: detection intensity vs 2 times of freezing and thawing
Experimental: as §1, §2, §15, §16, §17, §18, §19, §20, §21, §22, §13
The rate of increase or decrease in Table M is the value of detection intensity relative to 1 that is the detection intensity in a case where the number of times of freezing and thawing is set to 2 times.

[4] = GC/MS of serum sample: time from centrifugation to isolation (Table H); design: key to Rate of increase or decrease / Rate of increase or decrease (first value, increase): detection intensity relative to 1 at 30 min centrifugation-to-isolation; conditions: for Rate of increase or decrease: detection intensity relative to 1 at 30 minutes; for Increase or decrease: detection intensity
Experimental: as §1, §2, §3, §4, §5, §6, §7, §8, §9, §10, §11, §12, §13
The rate of increase or decrease in Table H is the value of detection intensity relative to 1 that is the detection intensity in a case where the time from centrifugation to isolation is set to 30 minutes.

[5] = GC/MS of blood plasma sample: time from blood collection to centrifugation (Table A); conditions: for Rate of increase or decrease: detection intensity relative to 1 at 15 minutes; for Rate of increase or decrease / Increase or decrease: blood collection to centrifugation; for Increase or decrease: detection intensity
Experimental: as §14, §2, §3, §4, §5, §6, §7, §8, §9, §10, §11, §12, §13
The rate of increase or decrease in Table A is the value of detection intensity relative to 1 that is the detection intensity in a case where the time from blood collection to centrifugation is set to 15 minutes.

[6] = GC/MS of serum sample: time from blood collection to centrifugation (Table G); conditions: blood collection to centrifugation; for Rate of increase or decrease: detection intensity relative to 1 at 15 minutes; for Increase or decrease: detection intensity
Experimental: as §1, §2, §3, §4, §5, §6, §7, §8, §9, §10, §11, §12, §13
The rate of increase or decrease in Table G is the value of detection intensity relative to 1 that is the detection intensity in a case where the time from blood collection to centrifugation is set to 15 minutes.

[7] = serum, GC/MS, freezing and thawing 10 times
[8] = detection intensity, serum, GC/MS, freezing and thawing 10 times vs 2 times
[9] = 10 times of freezing and thawing
[10] = serum sample, GC/MS, detection intensity vs 2 times of freezing and thawing

CCC(N)C(=O)O (stereo not shown) [2-Aminobutyric acid]
Rate of increase or decrease [1, 7]: 2.63
Increase or decrease [1, 8]: Increase
Increase or decrease [2]: Different from individual
Rate of increase or decrease (second value, decrease) [2]: 0.65
Rate of increase or decrease (first value, increase) [2]: 1.53
Rate of increase or decrease ([3]; relative to 1 at 2 times, different from individual to individual, first value (increase)): 1.31
Rate of increase or decrease ([3]; relative to 1 at 2 times, different from individual to individual, second value (decrease)): 0.61
Number of times when compound is affected [3]: 6 times
Increase or decrease [3]: Different from individual
Rate of increase or decrease ([4]; after 6 hours): 1.60
Increase or decrease ([4]; after 6 hours vs 30 minutes): Increase

CC(CN)C(=O)O (stereo not shown) [3-Aminoisobutyric acid]
Rate of increase or decrease [1, 7]: 1.47
Increase or decrease [1, 8]: Increase
Rate of increase or decrease ([5]; after 12 hours): 1.44
Increase or decrease ([5]; after 12 hours vs 15 minutes): Increase

O=C(O)C(O)Cc1ccc(O)cc1 (stereo not shown) [4-Hydroxyphenyllactic acid]
Rate of increase or decrease ([5]; after 12 hours): 1.33
Increase or decrease ([5]; after 12 hours vs 15 minutes): Increase
Rate of increase or decrease ([4]; after 1 hour): 0.64
Increase or decrease ([4]; after 1 hour vs 30 minutes): Decrease

O=C(O)C=C(CC(=O)O)C(=O)O [Aconitic acid]
Rate of increase or decrease ([5]; after 4 hours): 0.41
Increase or decrease ([5]; after 4 hours vs 15 minutes): Decrease
Rate of increase or decrease ([4]; after 1 hour): 0.04
Increase or decrease ([4]; after 1 hour vs 30 minutes): Decrease
Rate of increase or decrease ([6]; after 4 hours): 1.52
Increase or decrease ([6]; after 4 hours vs 15 minutes): Increase

CCCCC/C=C\C/C=C\C/C=C\C/C=C\CCCC(=O)O [Arachidonic acid]
Rate of increase or decrease [1, 7]: 1.52
Increase or decrease [1, 8]: Increase
Rate of increase or decrease ([5]; after 4 hours): 1.56
Increase or decrease ([5]; after 4 hours vs 15 minutes): Increase

CC(C)CCC[C@@H](C)[C@H]1CC[C@H]2[C@@H]3CC=C4C[C@@H](O)CC[C@]4(C)[C@H]3CC[C@]12C [Cholesterol]
Rate of increase or decrease ([5]; after 12 hours): 1.38
Increase or decrease ([5]; after 12 hours vs 15 minutes): Increase

CCCCC/C=C\C/C=C\CCCCCCCC(=O)O [Linoleic acid]
Rate of increase or decrease ([5]; after 12 hours): 1.34
Increase or decrease ([5]; after 12 hours vs 15 minutes): Increase

CCCCCCCCCCCCCC(=O)O [Myristic acid]
Rate of increase or decrease ([5]; after 12 hours): 1.55
Increase or decrease ([5]; after 12 hours vs 15 minutes): Increase
Rate of increase or decrease ([6]; after 8 hours): 1.30
Increase or decrease ([6]; after 8 hours vs 15 minutes): Decrease

CCCCCCCC/C=C\CCCCCCCC(=O)O [Oleic acid]
Rate of increase or decrease ([5]; after 12 hours): 4.05
Increase or decrease ([5]; after 12 hours vs 15 minutes): Increase

CCCCCCCCCCCCCCCC(=O)O [Palmitic acid]
Rate of increase or decrease ([5]; after 12 hours): 4.05
Increase or decrease ([5]; after 12 hours vs 15 minutes): Increase

O=C(CO)[C@H](O)[C@@H](O)[C@H](O)CO [Sorbose]
Rate of increase or decrease [1, 9]: 0.68
Number of times when compound is affected ([1]; serum sample, GC/MS): 10 times
Increase or decrease [1, 10]: Decrease
Increase or decrease ([5]; after 4 hours vs 15 minutes): Different from individual
Rate of increase or decrease (second value, decrease) ([5]; different from individual to individual, individuals with decrease, relative to 1 at 15 minutes, collection to centrifugation, after 4 hours): 0.67
Rate of increase or decrease (first value, increase) ([5]; different from individual to individual, individuals with increase, relative to 1 at 15 minutes, collection to centrifugation, after 4 hours): 2.10
Rate of increase or decrease ([6]; after 4 hours): 1.53
Increase or decrease ([6]; after 4 hours vs 15 minutes): Increase

CCCCCCCCCCCCCCCCCC(=O)O [Stearic acid]
Rate of increase or decrease [1, 9]: 1.33
Number of times when compound is affected ([1]; serum sample, GC/MS): 10 times
Increase or decrease [1, 10]: Increase
Rate of increase or decrease ([5]; after 12 hours): 2.13
Increase or decrease ([5]; after 12 hours vs 15 minutes): Increase

N[C@@H](Cc1c[nH]c2ccccc12)C(=O)O [Tryptophan]
Increase or decrease [2]: Different from individual
Rate of increase or decrease (second value, decrease) [2]: 0.66
Rate of increase or decrease (first value, increase) [2]: 1.62
Rate of increase or decrease ([3]; detection intensity relative to 1 at 2 times): 0.66
Number of times when compound is affected [3]: 6 times
Increase or decrease [3]: Decrease

NCCc1ccc(O)cc1 [Tyramine]
Rate of increase or decrease [1, 9]: 3.78
Number of times when compound is affected ([1]; serum sample, GC/MS): 10 times
Increase or decrease [1, 10]: Increase
Rate of increase or decrease ([4]; after 6 hours): 3.34
Increase or decrease ([4]; after 6 hours vs 30 minutes): Increase
Rate of increase or decrease ([6]; after 4 hours): 2.37
Increase or decrease ([6]; after 4 hours vs 15 minutes): Increase

O=c1cc[nH]c(=O)[nH]1 [Uracil]
Rate of increase or decrease ([1]; serum, GC/MS, freezing and thawing 6 times): 1.54
Increase or decrease ([1]; detection intensity, serum, GC/MS, freezing and thawing 6 times vs 2 times): Increase
Rate of increase or decrease ([4]; after 6 hours): 4.84
Increase or decrease ([4]; after 6 hours vs 30 minutes): Increase
Rate of increase or decrease ([6]; after 4 hours): 1.38
Increase or decrease ([6]; after 4 hours vs 15 minutes): Increase
